This is an account of results in patent US11884675B2, “Heterocyclic compounds as triggering receptor expressed on myeloid cells 2 agonists and methods of use” (AMGEN INC., priority 2020, dated 2024).

In assay [1] the target is T1, hTREM2 (Homo sapiens, UniProt Q9NZC2). The assay is described as follows: TREM2 agonist potency by Syk phosphorylation (AlphaLisa) in HEK293T-hTREM2 cells, used for Examples 306-429. It counts as cell-based. Set-up: expressed in transfected cells; host or cells: HEK293T (HEK293T-hTREM2 cells). The note with it: HEK293 Cells. How it is done:
In vitro Measurement of Triggering Receptor Expressed on Myeloid Cells 2 activity using cellular phosphorylation of Spleen Tyrosine Kinase (“Syk”) Assays used for Examples 306-429
Measurement of TREM2 agonist potency was done using a HEK cell line expressing human TREM2 and DAP12 (HEK293T-hTREM2 cells). Binding of small molecules to, and activation of, TREM2 increases the phosphorylation of Syk. The resultant levels of Syk phosphorylation were measured using a commercial AlphaLisa reagent kit. To perform the assay, HEK-hTREM2 cells were plated at 14,000 cells per well in a 384 well plate, in 25 μL, of complete growth media and incubated at 37° C., 5% CO2 for 20-24 hours. Prior to the assay, test compounds were diluted in the 384 well plates in assay buffer and allowed to equilibrate for 30 minutes. Growth media was removed from cell plates by inversion on blotting paper, and 25 μL of test compounds in assay buffer was added to cells. Cells were incubated for 45 minutes at room temperature. After 45 minutes, assay buffer was removed and 10 μL of lysis buffer was added. Plates were shaken for 20 minutes at 350 RPM at room temperature. After complete lysis, AlphaLisa reagents were added to the lysate, and fluourescence intensity was measured using a Perkin Elmer Envision plate reader. Intensities were used to generate a standard curve, and % activation was calculated. Curve fitting was performed using Prism v9 software, log(agonist) vs response-variable slope (four parameters), and EC50s were calculated from the curve fit.
The results presented in Table 20 have been generated with the in vitro assay described above for Examples 306-429. This assay may be used to test any of the compounds described herein to assess and characterize a compound's ability to act as an agonist of TREM2.
A general note: Bead proximity is the source of the signal in Alpha formats.

Assay [2] addresses T1, hTREM2. Kind of assay: TREM2 activity by cellular Syk phosphorylation (AlphaScreen/AlphaLISA) in TREM2/DAP12-HEK cells, used for Examples 1-305. It counts as cell-based. Set-up: expressed in transfected cells. The note with it: HEK293 Cells. The method, boiled down: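 Single-cell-cloned HEK293 cells overexpressing TREM2 and DAP12, seeded 20 h, exposed to test articles (1% final DMSO) for 45 min at room temperature. Lysates read for phospho-Syk (Tyr525/526) vs total Syk by AlphaScreen. Signal normalised as percent of control between isotype IgG and 100 nM anti-TREM2 antibody; 4-parameter logistic fit.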

T1 sequence (Q9NZC2 19-230): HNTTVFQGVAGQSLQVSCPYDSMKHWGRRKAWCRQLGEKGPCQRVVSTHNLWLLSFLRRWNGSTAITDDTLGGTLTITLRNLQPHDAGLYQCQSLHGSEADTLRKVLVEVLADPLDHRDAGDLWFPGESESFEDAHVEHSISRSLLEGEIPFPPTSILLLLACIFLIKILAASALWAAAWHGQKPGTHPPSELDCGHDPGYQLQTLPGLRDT
T1 sequence (O43914 22-113 partner): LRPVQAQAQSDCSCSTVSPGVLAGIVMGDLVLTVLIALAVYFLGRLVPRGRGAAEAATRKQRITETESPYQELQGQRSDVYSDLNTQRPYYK

A word on the EC50: it is the concentration at which the effect is half-maximal. Lower therefore signals a more potent agent. Compound `Cc1nc2cc(N3CC(C)OC(c4cnn(C5CC5)c4)C3)nc(-c3ccc(Cl)cc3F)c2nc1C` (stereo not shown) [Example 367, 4-(5-(4-chloro-2-fluorophenyl)-2,3-dimethylpyrido[3,4-b]pyrazin-7-yl)-2-(1-cyclopropyl-1H-pyrazol-4-yl)-6-methylmorpholine] yielded an EC50 in assay [1] of 0.05 to 0.5 µM.
In assay [1], `Cc1cc(C2CN(c3cc4nc(C)cnc4c(-c4ccc(C(F)(F)F)nc4)n3)CCO2)ccn1` (stereo not shown) [Example 311, 4-(2-methyl-5-(6-(trifluoromethyl)pyridin-3-yl)pyrido[3,4-b]pyrazin-7-yl)-2-(2-methylpyridin-4-yl)morpholine] came in with an EC50 of 0.05 to 0.5 µM.
On the same count and under the same terms, with `Cc1cc(C2CN(c3cc4nc(C)c(C)nc4c(-c4ccc(F)cc4F)n3)CCO2)ccn1` (stereo not shown) [Example 315, 4-(5-(2,4-difluorophenyl)-2,3-dimethylpyrido[3,4-b]pyrazin-7-yl)-2-(2-methylpyridin-4-yl)morpholine] the figure was ≤ 0.05 µM; with `Cc1cc([C@H]2C[C@H](c3cc4nc(C)c(C)nc4c(-c4ccc(C(F)(F)F)nc4)n3)CCO2)ccn1` (racemic) [Example 306], 0.05 to 0.5 µM; with `Cc1cnc2c(-c3ccc(Cl)cc3F)nc(N3C[C@H](C)O[C@@H](c4cnn(C5CC5)c4)C3)nc2n1` (racemic) [Example 374, 4-(4-(4-chloro-2-fluorophenyl)-7-methylpteridin-2-yl)-2-(1-cyclopropyl-1H-pyrazol-4-yl)-6-methylmorpholine], ≤ 0.05 µM.
The same measure, in the same setting: next, `[2H]C([2H])([2H])c1nc2nc([C@H]3CCO[C@@H](c4ccnc(C)c4)C3)nc(-c3ccc(Cl)c(F)c3F)c2nc1C([2H])([2H])[2H]` (racemic) [Example 395, 4-(4-chloro-2,3-difluoro-phenyl)-2-[2-(2-methyl-4-pyridyl)tetrahydropyran-4-yl]-6,7-bis(trideuteriomethyl)pteridine]: ≤ 0.05 µM.
For the compound `Cc1cc(C2CN(c3cc4nc(C)c(C)cc4c(-c4ccc(C(F)(F)F)nc4)n3)CCO2)ccn1` (stereo not shown) [Example 347, 4-(2,3-dimethyl-5-(6-(trifluoromethyl)pyridin-3-yl)-1,6-naphthyridin-7-yl)-2-(2-methylpyridin-4-yl)morpholine], in assay [1], the EC50 was ≤ 0.05 µM.
Regarding `Cc1cc(C2CC(c3nc(-c4ccc(C(F)(F)F)nc4)c4ccc(C)nc4n3)CCO2)ccn1` (stereo not shown) [Example 324, 7-methyl-2-(2-(2-methylpyridin-4-yl)tetrahydro-2H-pyran-4-yl)-4-(6-(trifluoromethyl)pyridin-3-yl)pyrido[2,3-d]pyrimidine], the 50% effective concentration (EC50) in assay [1] lay in the range of 0.05 to 0.5 µM.
The same measure, in the same setting: with `Cc1nc2nc([C@H]3CCO[C@@H](c4cnn(C5CC5)c4)C3)nc(-c3ccc(C(F)(F)F)cc3F)c2nc1C` [Example 413, 2-((2R,4S)-2-(1-cyclopropyl-1H-pyrazol-4-yl)tetrahydro-2H-pyran-4-yl)-4-(2-fluoro-4-(trifluoromethyl)phenyl)-6,7-dimethylpteridine] the figure was ≤ 0.05 µM; with `Cc1cc([C@H]2C[C@@H](c3cc4nc(C)cnc4c(-c4ccc(F)cc4F)n3)CCO2)ccn1` (racemic) [Example 307, 5-(2,4-difluorophenyl)-2-methyl-7-(2-(2-methylpyridin-4-yl)tetrahydro-2H-pyran-4-yl)pyrido[3,4-b]pyrazine], 0.05 to 0.5 µM; with `Cc1cc(C2CC(c3cc4nc(C)c(C)nc4c([C@]45C[C@](C(F)(F)F)(C4)C5)n3)CCO2)ccn1` (mixture of isomers) [Example 319, 2,3-dimethyl-7-(2-(2-methylpyridin-4-yl)tetrahydro-2H-pyran-4-yl)-5-(3-(trifluoromethyl)bicyclo[1.1.1]pentan-1-yl)pyrido[3,4-b]pyrazine], ≤ 0.05 µM.
Turning to `Cc1cc(C2CC(c3cc4nc(C)c(C)cc4c(-c4ccc(F)cc4F)n3)CCO2)ccn1` (stereo not shown) [Example 328, 5-(2,4-difluorophenyl)-2,3-dimethyl-7-(2-(2-methylpyridin-4-yl)tetrahydro-2H-pyran-4-yl)-1,6-naphthyridine], in assay [1], the EC50 was ≤ 0.05 µM.
Same read-out and setting: next, `Cc1cnc2c(-c3ccc(Cl)cc3F)nc(N3C[C@@H](C)O[C@@H](c4cnn(C5CC5)c4)C3)cc2n1` (racemic) [Example 368, 4-(5-(4-chloro-2-fluorophenyl)-2-methylpyrido[3,4-b]pyrazin-7-yl)-2-(1-cyclopropyl-1H-pyrazol-4-yl)-6-methylmorpholine]: 0.05 to 0.5 µM.
For the compound `Cc1nc2nc(N3CCOC(c4cnn(C5CC5)c4)C3)nc(-c3ccc(Cl)cc3F)c2nc1C` (stereo not shown) [Example 381, 4-[4-(4-chloro-2-fluoro-phenyl)-6,7-dimethyl-pteridin-2-yl]-2-(1-cyclopropylpyrazol-4-yl)morpholine], the EC50 in assay [1] is ≤ 0.05 µM.
As to `Cc1cnc2c(-c3ccc(Cl)cc3F)nc(N3C[C@@H](c4cnn(C5CC5)c4)O[C@@H](C)C3)nc2n1` [Example 423, (2R,6S)-4-(4-(4-chloro-2-fluorophenyl)-7-methylpteridin-2-yl)-2-(1-cyclopropyl-1H-pyrazol-4-yl)-6-methylmorpholine], in assay [1], the EC50 was 0.05 to 0.5 µM.
Consider `Cc1cc([C@@H]2C[C@H](c3cc4nc(C)c(C)nc4c(-c4ccc(F)cc4F)n3)CCO2)ccn1` [Example 316, 5-(2,4-difluorophenyl)-2,3-dimethyl-7-[(2S,4R)-2-(2-methyl-4-pyridyl)tetrahydropyran-4-yl]pyrido[3,4-b]pyrazine], for which the EC50 in assay [1] fell in the range of 0.05 to 0.5 µM.
In turn, `Cc1cnc2c(C34CC(C(F)(F)F)(C3)C4)nc(N3C[C@H](C)O[C@@H](c4cnn(C5CC5)c4)C3)nc2n1` (racemic) [Example 355, 2-(1-cyclopropyl-1H-pyrazol-4-yl)-6-methyl-4-(7-methyl-4-(3-(trifluoromethyl)bicyclo[1.1.1]pentan-1-yl)pteridin-2-yl)morpholine] registered a concentration giving a half-maximal response (EC50) in assay [1] of 0.05 to 0.5 µM.
`Cc1nc2nc(N3C[C@@H](C)O[C@H](c4cnn(C5CC5)c4)C3)nc(C34CC(C(F)(F)F)(C3)C4)c2nc1C` [Example 409, (2R,6R)-2-(1-cyclopropyl-1H-pyrazol-4-yl)-4-(6,7-dimethyl-4-(3-(trifluoromethyl)bicyclo[1.1.1]pentan-1-yl)pteridin-2-yl)-6-methylmorpholine] came in with an EC50 in assay [1] of 0.05 to 0.5 µM.
On to `Cc1cnc2c(-c3ccc(F)cc3F)nc(N3CCOC(c4cnn(C5CC5)c4)C3)cc2n1` (stereo not shown) [Example 341, 2-(1-cyclopropyl-1H-pyrazol-4-yl)-4-(5-(2,4-difluorophenyl)-2-methylpyrido[3,4-b]pyrazin-7-yl)morpholine], for which the EC50 in assay [1] was ≤ 0.05 µM.
With `Cc1cc([C@H]2CN(c3nc4nc(C)cnc4c([C@H]4C[C@@H](C(F)(F)F)C4)n3)CCO2)cnn1` [Example 280, (S)-4-(7-methyl-4-((1s,3R)-3-(trifluoromethyl)cyclobutyl)pteridin-2-yl)-2-(6-methylpyridazin-4-yl)morpholine], in assay [2], the EC50 lay in the range of 0.5 to 3 µM; the “hTREM2 Emax” value was “+++ (Emax>150 and ≤250)”.
As for `Cc1nc2cc([C@@H]3CCO[C@H](c4cnn(C)c4)C3)nc(-c3ccc(F)cc3F)c2nc1C` [Example 257, 5-(2,4-difluorophenyl)-2,3-dimethyl-7-((2S,4R)-2-(1-methyl-1H-pyrazol-4-yl)tetrahydro-2H-pyran-4-yl)pyrido[3,4-b]pyrazine], in assay [2], the EC50 was in the range of 0.5 to 3 µM; the “hTREM2 Emax” value is “++ (Emax>100 and ≤150)”.
As for `Cc1nc2nc([C@@H]3CCO[C@H](c4cnn(C5CC5)c4)C3)nc(-c3ccc(C(F)(F)F)nc3)c2nc1C` [Example 301, 2-((2S,4R)-2-(1-cyclopropyl-1H-pyrazol-4-yl)tetrahydro-2H-pyran-4-yl)-6,7-dimethyl-4-(6-(trifluoromethyl)pyridin-3-yl)pteridine], in assay [2], the EC50 is ≤ 0.05 µM; the “hTREM2 Emax” value was “+++ (Emax>150 and ≤250)”.
Take `Cc1nc2nc(N3CCO[C@H]([C@@H]4CCOC4)C3)nc(-c3ccc(F)cc3F)c2nc1C` (single isomer, unassigned) [Example 35]: in assay [2], the 50% effective concentration (EC50) was in the range of 0.05 to 0.5 µM; the “hTREM2 Emax” value was “+++ (Emax>150 and ≤250)”.
Regarding `Cn1cc([C@H]2CN(c3cc(-c4ccc(Cl)cc4F)c4cccnc4n3)CCO2)cn1` [Example 155, 4-(4-chloro-2-fluorophenyl)-2-((2S)-2-(1-methyl-1H-pyrazol-4-yl)-4-morpholinyl)-1,8-naphthyridine], in assay [2], the EC50 lay within 0.5 to 3 µM; the “hTREM2 Emax” value is “++ (Emax>100 and ≤150)”.
In the case of `CN1Cc2c(cc(N3CCO[C@@H](c4cnn(C5CC5)c4)C3)nc2-c2ccc(Cl)cc2F)C1=O` [Example 120, 4-(4-chloro-2-fluorophenyl)-6-((2S)-2-(1-cyclopropyl-1H-pyrazol-4-yl)-4-morpholinyl)-2-methyl-2,3-dihydro-1H-pyrrolo[3,4-c]pyridin-1-one], in assay [2], the concentration for a half-maximal effect (EC50) is 0.05 to 0.5 µM and the “hTREM2 Emax” value was “++++ (Emax>250)”.
